# In the METLIN SMRT retention time set (Domingo-Almenara et al. 2019):
# Test: gradient 5% acetonitrile 3 min, to 50% in 2 min, to 85% in 15 min, held 3 min, 100 µL/min
# Conditions: column: Zorbax Extend-C18 2.1 x 50 mm; eluents: water / acetonitrile, 0.1% formic acid
# How it was run: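 Retention time was recorded from adduct peaks, which were picked computationally and each inspected manually. Pure standards ran in mixtures of ~100 molecules on HPLC coupled to a quadrupole time-of-flight mass spectrometer, in positive and negative ionization mode, through a Zorbax Extend-C18 column (2.1 × 50 mm, 1.8 μm) at 100 μL/min. Eluents were water and acetonitrile, each with 0.1% formic acid.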
row,SMILES,RP-LC retention time [s]
1,Cc1ccc(-c2noc(CN3N=NC4C(=O)N(c5ccc(C(C)C)cc5)C(=O)C43)n2)cc1 (stereo not drawn),1150
2,CCC1Oc2ccc(S(=O)(=O)N3CCC(C(=O)Nc4cccc(Cl)c4)CC3)cc2NC1=O (stereo not drawn),892
3,CN(C)C(=O)c1n[nH]c2c1CN(C(=O)c1cccc(C(F)(F)F)c1)CC2,673
4,Cc1cccc(NC(=O)C2CCc3nc(N4CCOCC4)ncc3C2)c1C (stereo not drawn),698
5,CCn1cc(S(=O)(=O)N2CCCn3nc(-c4ccc(OC)cc4)cc3C2)cn1,805
6,Cc1cccc(N2CCN(C(=O)c3cc4c(=O)n(C)ccc4n3C)CC2)c1C,818
7,COc1ccc(-c2noc(-c3nc(Cc4ccccc4)no3)n2)cc1,1170
8,CCn1cc(-c2nc(C)c(C(=O)Nc3ccccc3)s2)c2cccnc21,965
9,Cc1cc(NCCOCCO)n2nc(-c3ccc(Cl)cc3)c(C)c2n1,644
10,Cc1nc(COc2ccccc2)sc1C(=O)NCCN(C)C,611
11,CCc1nnc([C@@H]2CC(F)(F)CN2C(=O)c2coc(C)n2)o1,678
12,O=C(Nc1nc(-c2ccc(Br)cc2)cs1)c1cccc(-n2cnnc2)n1,884
13,CCOc1ccccc1-c1nc(-c2ccc3ncn(CC)c3c2)no1,788
14,Cc1ccc(NC(=O)N2CCc3nc[nH]c3C2)c(Cl)c1,585
15,CCOC(=O)c1[nH]c(C)c(CCC(=O)N2CCC(C(=O)NCCC(C)C)CC2)c1C,798
16,CCNC(=O)C1(CCO)CCN(c2ncccn2)C1 (stereo not drawn),539
17,Cn1nc(-c2nnc(-c3ccc(F)cc3)o2)c2c1CCN(C(=O)Nc1ccccc1)C2,833
18,COc1ccc(CCC(=O)N2CCC3(CC2)C(=O)N(C)c2ccccc23)cc1,867
19,CCc1ccc(CNC(=O)Cn2ccc3c(=O)n(C)c(=O)n(C)c32)cc1,716

row,SMILES,RP-LC retention time [s]
1,Cc1ccc(NC(=O)CN2CCc3ccccc3C2C(=O)N2CCCCC2)cc1C (stereo not drawn),900
2,Cc1cc(C(=O)N2CCCCC2)c2c(=O)n(Cc3ccc4nonc4c3)c(=O)n(C)c2n1,902
3,O=C(NCCn1cnc2cc(C(=O)N3CCCC3)ccc21)Nc1ccc(Br)cc1F,639
4,Cc1cc(C)n(CCNC(=O)c2c(F)cccc2F)n1,607
5,COc1ccc(OC)c(S(=O)(=O)N2CCCOCCNC(=O)[C@@H]3CCC[C@@H]32)c1,720
6,Cn1nnnc1C1CCCN(C(=O)Nc2ccc3c(c2)OCCO3)C1 (stereo not drawn),661
7,COc1ccc(NC(=O)Nc2cccc(-c3ccc(N4CCOCC4)nn3)c2)cc1,658
8,CCc1ccc(CNC(=O)c2cn(-c3ccc(-c4nc(C)no4)cn3)cn2)cc1,805
9,O=C(Cc1ccc(F)cc1)N1CCCCC1c1nncn1CC1CC1 (stereo not drawn),735
10,CCOc1ccc(CCNC(=O)c2c(C)oc3c2C2=NCCN2C=N3)cc1OCC,651
11,c1ccc(-c2nc(C3CC3)no2)c(OC2CN(Cc3ccncc3)C2)c1,611
12,Cc1noc(-c2cccc(OC3CN(C(=O)C4CCOC4)C3)c2)n1 (stereo not drawn),694
13,Cc1cccc(OCC(=O)N2CCc3cc(-c4csc(C)n4)ccc32)c1,847
14,CCCCNC(=O)C1CCCN(C(=O)c2[nH]c(C)cc2C)C1 (stereo not drawn),691
15,CN1CCN(c2ccc(CNC(=O)C3CCc4sc(C(=O)N(C)C)cc4C3)cc2)CC1 (stereo not drawn),576
16,CNCCC(Oc1ccccc1C)c1ccccc1 (stereo not drawn),778
17,COc1ccc(N2CCN(Cc3nc4ccccc4[nH]c3=O)CC2)cc1,614
18,O=c1c2cc(-c3cccs3)nn2cnn1Cc1nc(-c2ccc3c(c2)OCO3)no1,1020
19,Cc1ccc(-c2nnc(C)c(NCc3ccc4c(c3)OCO4)n2)cc1,730
